According to patent US20200200775A1, “OXIDIZED LIPIDS AS BIOMARKERS FOR NEUROPATHIC PAIN” (Fraunhofer-Gesellschaft zur Förderung der angewandten …, priority 2017, published 2020):

How the values were obtained:
[1] = Plasma concentrations of 9,10-EpOME and 9,10-DiHOME after paclitaxel treatment, with telmisartan administration; type: in vivo, mice; conditions: 8 d after paclitaxel-treatment (6 mg/kg); telmisartan 10 mg/kg, 2 h
Description: FIG. 4: Plasma-concentrations of 9,10-EpoME and its Metabolite 9,10-DiHOME 8d after paclitaxel-treatment (6 mg/kg) can be reduced by administration of telmisartan (10 mg/kg, 2h). Data are shown as mean±SEM from five mice per group; one-way ANOVA, *p<0.05.
Oxaliplatin was dissolved in saline.
These conditions were held for 1 min.
Ratios of analyte peak area and internal standard area.

[2] = LC-MS/MS lipid profiling in mouse models of chemotherapy-induced peripheral neuropathic pain; conditions: for concentrations of 9,10-EpOME: various pain relevant tissues and plasma following paclitaxel (6 mg/kg i.p.) or oxaliplatin (3 mg/kg i.p.) treatment, measurable as early as 24 hours after injection; for concentrations of 9-HODE / concentrations of 13-HODE: various pain relevant tissues and plasma following paclitaxel or oxaliplatin treatment
Description: For all behavioral experiments, only 6-12 weeks old male C57BL/6N mice were used and purchased from commercial breeding companies (Charles River, Sulzfeld, Germany, Janvier, Le Geneset-Saint-Isle, FR). To compare mechanical thresholds, age and sex matched littermates were used as control.
Paclitaxel was dissolved in Cremophor EL/Ethanol 1:1 and diluted in saline. The dose for intraperitoneal injection was set to 6 mg/kg as described previously [4]. Oxaliplatin was dissolved in saline. The dose for intraperitoneal injection was set to 3 mg/kg as described previously [5].
For the measurement of epoxy lipids and HETEs stock solutions of the analytes 9,10-EpOME, 9-HODE, 13-HODE, 12-HETE and 15-HETE and internal standards 9,10-EpOME-d4, 9-HODE-d4, 13-HODE-d4, 12-HETE-d4 and 15-HETE-d4 are generated with concentrations of 2500 ng/ml in ethanol. Working standards were obtained by further dilution with a concentration range of 0.1-250 ng/ml for all analytes.
For prostanoids, stock solutions with 50,000 ng/ml of all analytes (6-keto-PGF1α) and internal standards (6-keto-PGF1α-d4) were prepared in methanol.
Lipids are extracted twice with 600 μl of ethyl acetate using liquid-liquid extraction. The combined organic phases were removed at a temperature of 45° C. under a gentle stream of nitrogen. The residues were reconstituted with 50 μl of methanol/water/butylated hydroxytoluene (BHT) (50:50:10^−3, v/v/v) (EpOMEs, HODEs and HETEs), or 50 μl of acetonitrile/water/formic acid (20:80:0.0025, v/v/v) (6-keto-PGF1α) and then centrifuged for 2 min at 10,000 g, and transferred to glass vials waiting for analysis.
The LC-MS/MS system consists of a QTrap 5500 (AB Sciex, Darmstadt, Germany) equipped with a Turbo-V source operating in negative electrospray ionization mode, an Agilent 1200 binary HPLC pump and degasser (Agilent, Waldbronn, Germany), and an HTC Pal autosampler (CTC analytics, Zwingen, Switzerland). High-purity nitrogen for the mass spectrometer was produced by a NGM 22-LC-MS nitrogen generator (cmc Instruments, Eschborn, Germany).
For the chromatographic separation of EpOMEs, HODEs and HETEs, a Gemini NX C18 column and precolumn were used (150×2 mm inner diameter, 5 μm particle size, and 110 Å pore size; Phenomenex, Aschaffenburg, Germany). For the chromatographic separation of prostanoids, a Synergi 4 u Hydro-RP column (150×2 mm inner diameter, 4 μm, Phenomenex, Aschaffenburg, Germany) and a precolumn of same material were used.
Mobile phase A consist of water: ammonia (100:0.05, v/v), and mobile phase B of acetonitrile ammonia (100:0.05, v/v). The gradient changed from 85% A to 10% within 12 min. These conditions were held for 1 min.
For the chromatographic separation of prostanoids, a Synergi 4 u Hydro-RP column (150×2 mm inner diameter, 4 μm, Phenomenex, Aschaffenburg, Germany) and a precolumn of same material were used.

[3] = pain relevant tissues, FIG. 2: 8 d after i.p. paclitaxel (6 mg/kg)

Structure (SMILES)	Plasma-concentrations of 9,10-DiHOME [1]	Plasma-concentrations of 9,10-EpOME [1]	concentrations of 12-HETE [2, 3]	concentrations of 15-HETE [2, 3]	concentrations of 6-keto-Prostaglandin-F1α ([2]; pain relevant tissues, FIG. 2: 8 d after multiple i.p. paclitaxel (4×2 mg/kg, every other day))	concentrations of 9,10-EpOME [2]	concentrations of 9-HODE [2]	concentrations of 13-HODE [2]
CCCc1nc2c(C)cc(-c3nc4ccccc4n3C)cc2n1Cc1ccc(-c2ccccc2C(=O)O)cc1 [telmisartan]	reduced	reduced	–	–	–	–	–	–
CC(=O)O[C@H]1C(=O)[C@@]2(C)[C@H]([C@H](OC(=O)c3ccccc3)[C@]3(O)C[C@H](OC(=O)[C@H](O)[C@@H](NC(=O)c4ccccc4)c4ccccc4)C(C)=C1C3(C)C)[C@]1(OC(C)=O)CO[C@@H]1C[C@@H]2O [paclitaxel]	–	–	decreased	decreased	decreased	elevated	elevated	elevated
O=C1[O][Pt]2([NH][C@@H]3CCCC[C@H]3[NH]2)[O]C1=O [oxaliplatin]	–	–	–	–	–	elevated	elevated	elevated
